Experiments:
TcpC TIR = TcpC TIR (Escherichia coli O6:H1, UniProt A0A0H2V8B5); test: biochemical; format: biochemical, uropathogenic Escherichia coli; conditions: for inhibitor of TcpC TIR NADase activity (screen hit, NAD/ADPR ratio >2): Pharmakon library screen, 25 μM compound, 10 μM NAD, 37° C. 60 min, hits retested for dose dependent inhibition
Procedure: (§1) NRK1-HEK293T cells were seeded onto 150 cm2 plates at 20×10^6 cells per plate. […] Forty-eight hours after transfection, cells were harvested, pelleted by centrifugation at 1,000 rpm (Sorvall ST 16R centrifuge, Thermo Fisher), and washed once with cold PBS (0.01 M phosphate buffered saline NaCl 0.138 M; KCl 0.0027 M; pH 7.4). The cells were resuspended in PBS with protease inhibitors (Complete protease inhibitor cocktail, Roche product #11873580001) and cell lysates were prepared by sonication (Branson Sonifer 450, output=3, 20 episodes of stroke). […] Protein concentration was determined by the Bicinchoninic (BCA) method and used to normalize lysate concentrations.
(§2) The reaction was incubated at 37° C. for 60 min, and then stopped by addition of 180 μl of 0.55 M perchloric acid (HClO4) and placed on ice. After 10 min on ice, the reaction plates were centrifuged for 10 min at 4,000 rpm (Sorvall ST 16R centrifuge). The supernatant (120 μl) was transferred to a new plate and 10 μl of 3M K2CO3 was added to neutralize the solution. Precipitated salts were removed by centrifugation 10 min at 4,000 rpm (Sorvall ST 16R centrifuge). […] This ratio was compared to the ratio generated in the absence of compound inhibitors.
(§3) Positive hits were individually purchased from Sigma and tested its dose dependent inhibition in conditions described above. SARM1 Sam-Tir lysate and MSSA Tir were also used to test if these compounds could block these Tir NADase activities as well.

[1] = tested on: prokaryotic TIR domains (TirS-TIR, TcpC-TIR, TcpA-TIR); test: Substrate specificity in NADase assay, purified prokaryotic TIR domains; format: biochemical; conditions: purified TIR proteins, HPLC and LC-MS, 30 minutes
Procedure: Supernatant (90 μL) containing the extracted metabolites was mixed with 0.5M Potassium Phosphate buffer (10 μL), and metabolites were analyzed by HPLC (Nexera X2) with Kinetex (100×3 mm, 2.6 μm; Phenomenex) column. Internal standards for NAD^+, Nicotinamide (Nam), ADP Ribose (ADPR), and cyclic ADPR were used to generate standard curves for quantification of the respective compounds. The levels for each compound in each experimental sample were normalized to the 0 min time point that was analyzed concurrently.
Neutralization was performed with 3M K2CO3.
Samples were prepared by mixing the reactions with 50% methanol in distilled water. The samples were placed on ice, centrifuged, soluble metabolites in the supernatant were extracted with chloroform, and the aqueous phase was lyophilized and stored at −20° C. until LC-MS analysis. For LC-MS, the metabolite samples were reconstituted with 5 mM ammonium formate, centrifuged 12,000×g for 10 min, and the cleared supernatant was applied to the LC-MS for metabolite identification and quantification. Liquid chromatography was performed by HPLC system (1290; Agilent) with Atlantis T3 (2.1×150 mm, 3 μm; Waters) column. Samples (10 µl) were injected at a flow rate of 0.15 ml/min with 5 mM ammonium formate for mobile phase A and 100% methanol for mobile phase B and metabolites were eluted with gradients of 2-6 min, 0-20% B; 6-8 min, 20-50% B; 8-10 min 50% B; 10-15 min, 50-0% B. The metabolites were detected with Triple Quad mass spectrometer (6460; Agilent) under positive ESI multiple reaction monitoring (MRM). Metabolites were quantified by MassHunter quantitative analysis tool (Agilent) with standard curves. Standard curves for each compound were generated by analyzing NAD^+, cADPR, ADPR, and Nam reconstituted in 5 mM ammonium formate.
In some instances, NADases are capable of cleaving a number of related molecules, such as the NAD+ precursor Nicotinamide Mononucleotide (NMN) in the case of CD38 (Sauve et al., 1998). Further, we wanted to determine whether prokaryotic TIRs could cleave additional substrates, providing additional paths to modifying cell metabolism. To examine the substrate specificity of the prokaryotic TIR domains, we tested their activity using a wide variety of metabolites and analogs.

SARM1-TIR = target: T1, SARM1-TIR (Homo sapiens, UniProt Q6SZW1, DEL570-570/DEL657-657); test: Substrate specificity in NADase assay, purified SARM1-TIR; format: biochemical; conditions: purified TIR protein, HPLC and LC-MS, 30 minutes
T1 construct: made in house
T1 sequence (Q6SZW1 with tags, fused parts or gaps DEL570-570/DEL657-657): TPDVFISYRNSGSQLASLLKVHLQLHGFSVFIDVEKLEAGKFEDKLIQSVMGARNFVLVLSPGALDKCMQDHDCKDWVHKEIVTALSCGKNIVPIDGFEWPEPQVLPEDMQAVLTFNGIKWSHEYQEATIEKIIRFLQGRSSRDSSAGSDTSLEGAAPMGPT

[2] = tested on: SPN (Streptococcus Pyogenes NAD^+ glycohydrolase); conditions: reported value (Ghosh et al., 2010); cited from earlier work
TirS = TirS (Staphylococcus aureus, UniProt P0DTS9); test: TirS NADase inhibition assay (in-vitro translated protein, NAD/ADPR by HPLC); format: biochemical; conditions: FIG. 11B
Procedure: as §2

SARM1 (Sam-Tir) = target: T2, SARM1 (Sam-Tir) (Homo sapiens, UniProt Q6SZW1); test: SARM1 Sam-Tir lysate NADase inhibition assay; format: biochemical; conditions: data not shown
T2 construct: SARM1 Sam-Tir lysate and MSSA Tir were also used; made in house; host or cells: lysate
T2 sequence (Q6SZW1 410-724 limits assumed): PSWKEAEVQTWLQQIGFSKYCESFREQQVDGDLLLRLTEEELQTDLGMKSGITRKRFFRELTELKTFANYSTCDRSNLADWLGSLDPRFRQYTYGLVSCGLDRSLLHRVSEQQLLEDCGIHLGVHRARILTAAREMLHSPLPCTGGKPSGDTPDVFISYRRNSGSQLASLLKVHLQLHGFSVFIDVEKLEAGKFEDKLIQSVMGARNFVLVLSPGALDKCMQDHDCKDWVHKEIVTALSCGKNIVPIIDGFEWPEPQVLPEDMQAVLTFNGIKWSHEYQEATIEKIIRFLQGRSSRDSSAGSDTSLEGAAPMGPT
Procedure: NAD (10 μM final concentration) was then added for a final reaction volume of 20 μl. The reaction was incubated at 37° C. for 60 min, and then stopped by addition of 180 μl of 0.55 M perchloric acid (HClO4) and placed on ice. After 10 min on ice, the reaction plates were centrifuged for 10 min at 4,000 rpm (Sorvall ST 16R centrifuge). The supernatant (120 μl) was transferred to a new plate and 10 μl of 3M K2CO3 was added to neutralize the solution. Precipitated salts were removed by centrifugation 10 min at 4,000 rpm (Sorvall ST 16R centrifuge). The supernatant was transferred and analyzed by HPLC (Shimadzu Nexera X2) to quantify the amounts of NAD and ADPR, a product of the cleavage reaction, in each sample. From these values, the NAD/ADPR ratio was calculated for each compound as a measure of NAD cleavage activity. This ratio was compared to the ratio generated in the absence of compound inhibitors.
as §3

[3] = target: T3, uropathogenic Escherichia coli TcpC TIR domain (TcpC-TIR) (Escherichia coli, UniProt A0A0H2V8B5); format: biochemical; conditions: primary screen 25 μM, 10 μM NAD, 37° C, 60 min (hit: NAD/ADPR ratio >2), then dose response; FIG. 10
T3 construct: cell lysate
Procedure: as §1, §2
Positive hits were individually purchased from Sigma and tested its dose dependent inhibition in conditions described above. […]

Sequence of TcpC TIR (A0A0H2V8B5 169-303 limits assumed): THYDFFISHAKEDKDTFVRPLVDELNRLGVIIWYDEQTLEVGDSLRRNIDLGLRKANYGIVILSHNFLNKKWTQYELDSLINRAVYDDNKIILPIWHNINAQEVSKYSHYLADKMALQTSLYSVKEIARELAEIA
T3 sequence (A0A0H2V8B5 170-307): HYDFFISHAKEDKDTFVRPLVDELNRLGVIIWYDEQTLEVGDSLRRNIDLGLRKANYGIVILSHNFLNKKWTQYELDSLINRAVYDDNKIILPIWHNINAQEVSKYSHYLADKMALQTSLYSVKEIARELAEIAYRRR
Sequence of TirS (P0DTS9 141-275 limits assumed): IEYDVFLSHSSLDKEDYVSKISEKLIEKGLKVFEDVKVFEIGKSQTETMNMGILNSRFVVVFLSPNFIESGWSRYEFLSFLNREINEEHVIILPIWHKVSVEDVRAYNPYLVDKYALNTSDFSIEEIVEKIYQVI

Question: With `NC(N)=NC(=O)c1nc(Cl)c(N)nc1N` [amiloride, 3,5-diamino-6-chloro-N-(diaminomethylidene)pyrazine-2-carboxamide] as the molecule, how does the “inhibitor of TcpC TIR NADase activity (screen hit, NAD/ADPR ratio >2)” value (shortened to “inhibitor … (screen hit, NAD/ADPR ratio >2)”) (TcpC TIR) read?
Answer: inhibitors

Question: Which “cleavage of substrate by prokaryotic TIR domains” value [1] does the source give for `Nc1ncnc2c1ncn2[C@@H]1O[C@H](COP(=O)(O)OP(=O)(O)OC[C@H]2O[C@@H]([n+]3cccc(C(=O)O)c3)[C@H](O)[C@@H]2O)[C@@H](O)[C@H]1O` [NaAD, Nicotinic Acid Adenine Dinucleotide] here?
Answer: none cleaved

Question: And the “cleavage of substrate by SARM1-TIR” value (SARM1-TIR)?
Answer: none cleaved

Question: Which results are given for `NC(=O)c1ccc[n+]([C@@H]2O[C@H](COP(=O)([O-])OP(=O)(O)OC[C@H]3O[C@@H](n4cnc5c(=O)[nH]c(N)nc54)[C@H](O)[C@@H]3O)[C@@H](O)[C@H]2O)c1` [NGD, Nicotinamide Guanine Dinucleotide]?
Answer: cleavage of substrate by prokaryotic TIR domains [1]: did not cleave; cleavage of substrate by SARM1-TIR (SARM1-TIR): cleaved

Question: Which “cleavage of substrate by prokaryotic TIR domains” value [1] does the source give for `Nc1ncnc2c1ncn2[C@@H]1O[C@H](COP(=O)(O)OP(=O)(O)OP(=O)(O)O)[C@@H](O)[C@H]1O` [ATP, Adenosine triphosphate] here?
Answer: unable to detect substantial cleavage

Question: What about the “cleavage of substrate by SARM1-TIR” value (SARM1-TIR) of the same molecule?
Answer: unable to detect substantial cleavage

Question: With `NC(=O)c1ccc[n+]([C@@H]2O[C@H](COP(=O)([O-])OP(=O)(O)OC[C@H]3O[C@@H](n4cnc5c(N)ncnc54)[C@H](O)[C@@H]3O)[C@@H](O)[C@H]2O)c1` [NAD+] as the molecule, how does the Km [2] read?
Answer: 188 µM

Question: Which “cleavage of substrate by prokaryotic TIR domains” value [1] does the source give for `NC(=S)c1ccc[n+]([C@@H]2O[C@H](COP(=O)([O-])OP(=O)(O)OC[C@H]3O[C@@H](n4cnc5c(N)ncnc54)[C@H](O)[C@@H]3O)[C@@H](O)[C@H]2O)c1` [sNAD, thionicotinamide adenine dinucleotide] here?
Answer: substantially cleaved

Question: What about the “cleavage of substrate by SARM1-TIR” value (SARM1-TIR) of the same molecule?
Answer: substantially cleaved

Question: What does the source list for `NC(=O)c1ccc[n+](C2OC(COP(=O)(O)OP(=O)(O)OCC3OC(n4cnc5c(=O)[nH]cnc54)C(O)C3O)C(O)C2O)c1` (stereo not shown) [NHD, Nicotinamide Hypoxanthine Dinucleotide]?
Answer: cleavage of substrate by prokaryotic TIR domains [1]: did not cleave; cleavage of substrate by SARM1-TIR (SARM1-TIR): cleaved

Question: Which results are given for `CC(=O)c1ccc[n+]([C@@H]2O[C@H](COP(=O)([O-])OP(=O)(O)OC[C@H]3O[C@@H](n4cnc5c(N)ncnc54)[C@H](O)[C@@H]3O)[C@@H](O)[C@H]2O)c1` [3-apAD, 3-acetylpyridine adenine dinucleotide]?
Answer: cleavage of substrate by prokaryotic TIR domains [1]: substantially cleaved; cleavage of substrate by SARM1-TIR (SARM1-TIR): substantially cleaved

Question: With `NC(=O)c1ccc[n+]([C@@H]2O[C@H](COP(=O)([O-])O)[C@@H](O)[C@H]2O)c1` [NMN, Nicotinamide Mononucleotide] as the molecule, how does the “cleavage of substrate by prokaryotic TIR domains” value [1] read?
Answer: little effect

Question: Which “cleavage of substrate by prokaryotic TIR domains” value [1] does the source give for “Nicotinamide Adenine Dinucleotide Phosphate [NADP^+]” here?
Answer: cleave

Question: What does the source list for Guanine triphosphate [GTP]?
Answer: cleavage of substrate by prokaryotic TIR domains [1]: unable to detect substantial cleavage; cleavage of substrate by SARM1-TIR (SARM1-TIR): unable to detect substantial cleavage

Question: With `Nc1c2ccccc2nc2ccccc12` [9-aminoacridine] as the molecule, how does the “inhibition of TcpC TIR NADase activity” value (TcpC TIR; data not shown) read?
Answer: Neither of these drugs inhibited

Question: And the “inhibition of TirS NADase activity, compared among acridine compounds” value (TirS)?
Answer: most potent inhibition

Question: What about the “inhibition of SARM1 (Sam-Tir) NADase activity” value (SARM1 (Sam-Tir)) of the same molecule?
Answer: Neither of these drugs inhibited

Question: For `Cc1cc(N)c2ccccc2[n+]1CCCCCCCCCC[n+]1c(C)cc(N)c2ccccc21` [Dequalinium], which IC50 (TcpC TIR) is on record?
Answer: ~300 nM

Question: What about the “inhibitor … (screen hit, NAD/ADPR ratio >2)” value (TcpC TIR) of the same molecule?
Answer: potent inhibitor

Question: What about the “inhibitor … (screen hit, NAD/ADPR ratio >2)” value (TcpC TIR; listed as dequalinium) of the same molecule?
Answer: inhibitors

Question: And the “inhibition of TcpC TIR NADase activity” value [3]?
Answer: very potent inhibitor

Source: patent US12247246B2, “Identification of inhibitors of TcpC and TIR NADase activity” (Washington University, priority 2017, dated 2025)
